# Experimental data from patent publication US10472346B2, “Potent gamma-secretase modulators” (The General Hospital Coporation, priority 2014, dated 2019).
# Legend:
# [1] = Plasma concentrations (pharmacokinetics) in male Sprague Dawley rats, iv and po; format: in vivo; conditions: rat
# Procedure: FIG. 4. Time course of administration of Compound 1 to male Sprague Dawley rats: iv (1 mg/kg) or po (5 mg/kg). […] Clearance was 89 mL/hr/kg. T1/2 (iv) was 5.9 hrs.
# Efficacy Studies in Rat. Plasma Concentrations of Compound 1 in Male Sprague Dawley Rats. FIG. 4 depicts the time course of administration of Compound 1 to male Sprague Dawley rats: iv (1 mg/kg) or [p (5 mg/kg). […] Clearance was 89 mL/hr/kg. T1/2 (iv) was 5.9 hrs.
# Aβ42 levels = test: Effects of 9 days treatment on rat plasma and CSF Aβ42 levels; format: in vivo, male Sprague-Dawley rat; conditions: for reduction in CSF Aβ42 levels: rat CSF; for reduction in plasma Aβ42 levels: rat plasma
# Procedure: FIG. 5: The effects of Compound 1 after 9-days treatment on Aβ42 levels in male Sprague-Dawley rat plasma A) where the reduction in plasma levels was 81%, 93% and 97%, for dosages of 5, 25, and 50 mg/kg, respectively and male Sprague-Dawley rat CSF B) where the reduction in CSF levels was 43%, 73% and 86%, for dosages of 5, 25, and 50 mg/kg, respectively.
# Effects of Compound 1 (9 Days Treatment) on Rat Plasma and CSF Aβ42 Levels. The effects of Compound 1 after 9-days treatment on Aβ42 levels in rat plasma and CSF are depicted in FIG. 5A (plasma) and FIG. 5B (CSF). For FIG. 5A, the reduction in plasma levels was 81%, 93% and 97%, for dosages of 5, 25, and 50 mg/kg, respectively. For FIG. 5B, the reduction in CSF levels was 43%, 73% and 86%, for dosages of 5, 25, and 50 mg/kg, respectively.
# Aβ40 levels = test: Effects of 9 days treatment on rat plasma and CSF Aβ40 levels; format: in vivo, male Sprague-Dawley rat; conditions: for reduction in CSF Aβ40 levels: rat CSF; for reduction in plasma Aβ40 levels: rat plasma
# Procedure: FIG. 6: The effects of Compound 1 after 9-days treatment on Aβ40 levels in male Sprague-Dawley rat plasma A) where the reduction in plasma levels was 61%, 89% and 95%, for dosages of 5, 25, and 50 mg/kg, respectively and in male Sprague-Dawley rat CSF B) where the reduction in CSF levels was 47%, 75% and 85%, for dosages of 5, 25, and 50 mg/kg, respectively.
# Effects of Compound 1 (9 Days Treatment) on Rat Plasma and CSF Aβ40 Levels. The effects of Compound 1 after 9-days treatment on Aβ40 levels in rat plasma and CSF are depicted in FIG. 6A (plasma) and FIG. 6B (CSF). For FIG. 6A, the reduction in plasma levels was 61%, 89% and 95%, for dosages of 5, 25, and 50 mg/kg, respectively. For FIG. 6B, the reduction in CSF levels was 47%, 75% and 85%, for dosages of 5, 25, and 50 mg/kg, respectively.
# [2] = system: APP-CTF (C-terminal fragment); test: Accumulation of APP-CTFs in brain extracts (immunoblot, anti-APP carboxyl-terminal antibody); format: in vivo; conditions: administered doses of 5, 25 or 50 mg/kg
# Procedure: FIG. 7: Protein blots of indicated proteins from subjects administered vehicle and Compound 1 at doses of 5, 25 and 50 mg/kg.
# Brain extracts which were prepared using 1.0% SDS run on SDS-PAGE, transferred to PVDF membranes and immunoblots were performed using an anti-APP carboxyl-terminal antibody.
# total Aβ peptides = test: Levels of total Aβ peptides, SHSYSY-APP cell-based assay (sandwich ELISA); conditions: concentration response, percent solvent control
# Source text: FIG. 8: Representative concentration response curves of Compound 1 using our primary and orthogonal medium throughput SHSYSY-APP cell-based screening assays (10). Compounds are first screened two times in triplicate in our UCSD sandwich Aβ42 ELISA on sequential days and the average of the two assays must be within 3-fold of each other before being entered into the CDD relational database. The UCSD sandwich ELISA assay can easily handle 20 compounds per week. Compounds with Aβ42 IC50 values <100 nM continue through the testing funnel. The Z′ score and the % CV for the UCSD Aβ42 sandwich ELISA assay are 0.8 and 4, respectively. For the Meso Scale triplex assay the Z′ scores are 0.7, 0.9 and 0.6 Aβ42, Aβ40 and Aβ38, respectively and the % CV's are 7, 2 and 1 for Aβ42, Aβ40 and Aβ38, respectively. Aβ total peptides are measured using a sandwich ELISA.
# The figure depicts percent solvent control (Aβ40/Aβ42/AβTotal) (left axis) and percent solvent control (Aβ38) again log of, concentration of Compound 1.
# Notch processing = Notch processing in transfected H4-APP751 cells (Western blot, Myc antibody, NICD); format: cell-based, human; conditions: H4-APP751 cells transfected with the NAE construct, different concentrations, 24 hrs
# Source text: Cells were harvested 48 hrs post transfection and applied to Western blotting analysis. Myc antibody was utilized to assess the NAED and NICD tagged with Myc on their N-termini. β-Actin was utilized as the loading control.
# Cells were harvested 48 hrs post transfection and subjected to Western blotting analysis. Myc antibody was utilized to assess the NδED and NICD tagged with Myc on their N-termini.
# Stable H4 human neuroglioma cells over-expressing human APP751, or H4-APP751 cells, were transfected with the NAE construct, and then treated with different concentrations SGSM Compound 1 (Lanes 1-6) or DAPT (Lanes 7-10) for another 24 hrs and are shown in FIG. 9. Cells were harvested 48 hrs post transfection and applied to Western blotting analysis. Myc antibody was utilized to assess the NAED and NICD tagged with Myc on their N-termini β-Actin was utilized as the loading control.
# Stably-transfected H4 human neuroglioma cells over-expressing human APP751 (H4-APP751) cells, were transfected with the Notch NδED construct, and then treated with vehicle, or different doses of GSMs (40 nM, 200 nM, 1000 nM, and 5000 nM) for 24 hrs. Cells were harvested 48 hrs post transfection and subjected to Western blotting analysis.
smiles,measurement,setting,value
"COc1nc(-c2cc(C)c(N[C@@H](C)c3ccc(F)cc3)nn2)ccc1-n1cnc(C)c1 [Compound 1, (S)—N-(1-(4-fluorophenyl)ethyl)-6-(6-methoxy-5-(4-methyl-1H-imidazol-1-yl)pyridin-2-yl)-4-methylpyridazin-3-amine]",bioavailability,[1]; iv (1 mg/kg) or po (5 mg/kg),60.3%
same,clearance,[1]; iv (1 mg/kg) or po (5 mg/kg),1.48 mL/min/kg
same,half-life,"[1]; iv (1 mg/kg), read-out: T1/2 (iv) (converted)",5.9 h
same,reduction in CSF Aβ42 levels,Aβ42 levels; 5 mg/kg,43%
same,reduction in CSF Aβ42 levels,Aβ42 levels; 25 mg/kg,73%
same,reduction in CSF Aβ42 levels,Aβ42 levels; 50 mg/kg,86%
same,reduction in plasma Aβ42 levels,Aβ42 levels; 5 mg/kg,81%
same,reduction in plasma Aβ42 levels,Aβ42 levels; 25 mg/kg,93%
same,reduction in plasma Aβ42 levels,Aβ42 levels; 50 mg/kg,97%
same,reduction in CSF Aβ40 levels,Aβ40 levels; 5 mg/kg,47%
same,reduction in CSF Aβ40 levels,Aβ40 levels; 25 mg/kg,75%
same,reduction in CSF Aβ40 levels,Aβ40 levels; 50 mg/kg,85%
same,reduction in plasma Aβ40 levels,Aβ40 levels; 5 mg/kg,61%
same,reduction in plasma Aβ40 levels,Aβ40 levels; 25 mg/kg,89%
same,reduction in plasma Aβ40 levels,Aβ40 levels; 50 mg/kg,95%
same,accumulation of APP-CTF (C-terminal fragment),[2],does not cause accumulation of APP-CTF
same,levels of total Aβ peptides,total Aβ peptides,does not decrease levels of total Aβ peptides
same,"Notch processing (NICD, Western blot)",Notch processing,did not inhibit Notch processing
